Tests used:
[1] = biological target: Recombinant human EIF2AK3 (PERK) catalytic domain (amino acids 536-1116) (Homo sapiens (Human), UniProt Q9NZJ5); assay: PERK In Vitro Activity Assay (isolated), TR-FRET kinase assay; conditions: isolated PERK enzyme, 1.5 μM ATP, read-out: Biochemical IC50
Procedure, shortened: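 IC50 values come from 4-parameter logistic fits of TR-FRET ratios, read after 90 min with 2 nM terbium-labelled phospho-eIF2a antibody following an EDTA stop (10 mM final). The kinase reaction ran 45 min at room temperature, started by adding PERK catalytic domain to 100–200 nM GFP-eIF2a in HEPES pH 7.5 buffer with MgCl2, EGTA and Brij-35.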

[2] = system: eIF2α in HEK293-EGFP-eIF2α cells; assay: PERK Cellular Assay (HEK293-EGFP-eIF2α cells, tunicamycin-induced ER stress, TR-FRET); format: cell-based; conditions: tunicamycin 2 hours
Procedure, shortened: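 After 2 h tunicamycin ([…]) stress following 30 min compound pretreatment at 37 °C, lysed HEK293-EGFP-eIF2α cells were read by TR-FRET. IC50 derived by 4-parameter logistic fitting of percent inhibition, DMSO-normalized, from 10-point 3-fold dilutions.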

Chain of Recombinant human EIF2AK3 (PERK) catalytic domain (amino acids 536-1116) (Q9NZJ5 536-1116): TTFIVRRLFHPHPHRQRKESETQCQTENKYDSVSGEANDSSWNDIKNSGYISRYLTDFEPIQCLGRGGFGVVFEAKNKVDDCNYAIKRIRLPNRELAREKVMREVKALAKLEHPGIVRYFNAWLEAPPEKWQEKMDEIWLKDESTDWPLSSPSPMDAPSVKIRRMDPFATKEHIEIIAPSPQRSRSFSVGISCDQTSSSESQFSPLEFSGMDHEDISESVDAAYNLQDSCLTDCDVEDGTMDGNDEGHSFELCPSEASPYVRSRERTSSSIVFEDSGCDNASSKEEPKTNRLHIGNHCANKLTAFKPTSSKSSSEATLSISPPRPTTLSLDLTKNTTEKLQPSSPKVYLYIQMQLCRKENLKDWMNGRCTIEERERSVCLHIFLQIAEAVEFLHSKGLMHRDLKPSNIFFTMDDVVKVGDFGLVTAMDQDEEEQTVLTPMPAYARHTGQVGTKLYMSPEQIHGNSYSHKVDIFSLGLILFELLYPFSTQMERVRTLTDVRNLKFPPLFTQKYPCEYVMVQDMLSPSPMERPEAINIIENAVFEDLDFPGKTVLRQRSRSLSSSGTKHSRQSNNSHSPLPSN

IC50 [1] | SMILES | IC50 [2] | IC50 ([2]; 2 h)
0.001 to 0.025 µM | [2H]C([2H])([2H])c1nc(-c2ccc(NC(=O)C(O)c3cccc(F)c3)cc2C)c2c(N)ncc(C(F)(F)F)n12 (stereo not drawn) [Example 31, N-[4-[8-amino-3-(trideuteriomethyl)-5-(trifluoromethyl)imidazo[1,5-a]pyrazin-1-yl]-3-methyl-phenyl]-2-(3-fluorophenyl)-2-hydroxy-acetamide] | 0.251 to 0.5 µM | –
0.001 to 0.025 µM | [2H]C([2H])([2H])c1nc(-c2ccc(NC(=O)C(O)c3cc(F)cc(C(F)(F)F)c3)cc2C)c2c(N)ncc(C(F)(F)F)n12 (stereo not drawn) [Example 60, N-[4-[8-amino-3-(trideuteriomethyl)-5-(trifluoromethyl)imidazo[1,5-a]pyrazin-1-yl]-3-methyl-phenyl]-2-[3-fluoro-5-(trifluoromethyl)phenyl]-2-hydroxy-acetamide] | 0.026 to 0.05 µM | –
0.001 to 0.025 µM | [2H]C([2H])([2H])c1nc(-c2ccc(NC(=O)C(O)c3cc(F)cc(F)c3)cc2F)c2c(N)nc(C)cn12 (stereo not drawn) [Example 103, N-[4-[8-amino-6-methyl-3-(trideuteriomethyl)imidazo[1,5-a]pyrazin-1-yl]-3-fluoro-phenyl]-2-(3,5-difluoro-phenyl)-2-hydroxy-acetamide] | 0.251 to 0.5 µM | –
0.001 to 0.025 µM | [2H]C([2H])([2H])c1nc(-c2ccc(NC(=O)C(O)c3cccc(C(F)(F)F)c3)c(F)c2F)c2c(N)ncc(C)n12 (stereo not drawn) [Example 146, N-[4-[8-amino-5-methyl-3-(trideuteriomethyl)imidazo[1,5-a]pyrazin-1-yl]-2,3-difluoro-phenyl]-2-hydroxy-2-[3-(trifluoromethyl)phenyl]acetamide] | 0.001 to 0.025 µM | –
0.001 to 0.025 µM | [2H]C([2H])([2H])c1nc(-c2ccc(NC(=O)C(O)c3cccc(Cl)c3)cc2C)c2c(N)ncc(C)n12 (stereo not drawn) [Example 36, N-[4-[8-amino-5-methyl-3-(trideuteriomethyl)imidazo[1,5-a]pyrazin-1-yl]-3-methyl-phenyl]-2-(3-chlorophenyl)-2-hydroxy-acetamide] | 0.001 to 0.025 µM | –
0.001 to 0.025 µM | [2H]C([2H])([2H])c1nc(-c2ccc(NC(=O)C(O)c3cccc(Cl)c3)cc2C)c2c(N)ncc(Cl)n12 (stereo not drawn) [Example 42, N-[4-[8-amino-5-chloro-3-(trideuteriomethyl)imidazo[1,5-a]pyrazin-1-yl]-3-methyl-phenyl]-2-(3-chlorophenyl)-2-hydroxy-acetamide] | 0.001 to 0.025 µM | –
0.001 to 0.025 µM | [2H]C([2H])([2H])c1nc(-c2ccc(NC(=O)C(O)c3cccc(Cl)c3)cc2F)c2c(N)ncc(C(F)(F)F)n12 (stereo not drawn) [Example 83, N-[4-[8-amino-3-(trideuteriomethyl)-5-(trifluoromethyl)imidazo[1,5-a]pyrazin-1-yl]-3-fluoro-phenyl]-2-(3-chlorophenyl)-2-hydroxy-acetamide] | 0.051 to 0.1 µM | –
0.001 to 0.025 µM | Cc1cc(NC(=O)C(O)c2cc(F)cc(C(F)(F)F)c2)ccc1-c1nc(C)n2c(C)cnc(N)c12 (stereo not drawn) [Example 59, N-(4-(8-amino-3,5-dimethylimidazo [1,5-a]pyrazin-1-yl)-3-methylphenyl)-2-(3-fluoro-5-(trifluoromethyl)phenyl)-2-hydroxyacetamide] | 0.101 to 0.25 µM | –
0.001 to 0.025 µM | Cc1cccc(C(O)C(=O)Nc2ccc(-c3nc(C)n4c(C)cnc(N)c34)c(F)c2)c1 (stereo not drawn) [Example 88, N-(4-(8-amino-3,5-dimethylimidazo [1,5-a]pyrazin-1-yl)-3-fluoro-phenyl)-2-hydroxy-2-(m-tolyl)acetamide] | 0.001 to 0.025 µM | –
0.001 to 0.025 µM | [2H]C([2H])([2H])c1nc(-c2ccc(NC(=O)C(O)c3cccc(Cl)c3)c(F)c2F)c2c(N)ncc(Cl)n12 (stereo not drawn) [Example 145, N-[4-[8-amino-5-chloro-3-(trideuteriomethyl)imidazo[1,5-a]pyrazin-1-yl]-2,3-difluoro-phenyl]-2-(3-chlorophenyl)-2-hydroxy-acetamide] | 0.001 to 0.025 µM | –
0.001 to 0.025 µM | [2H]C([2H])([2H])c1nc(-c2ccc(NC(=O)C(O)c3cc(F)cc(F)c3)c(F)c2F)c2c(N)ncc(Cl)n12 (stereo not drawn) [Example 157, N-[4-[8-amino-5-chloro-3-(trideuteriomethyl)imidazo[1,5-a]pyrazin-1-yl]-2,3-difluoro-phenyl]-2-(3,5-difluorophenyl)-2-hydroxy-acetamide] | 0.051 to 0.1 µM | –
0.251 to 0.5 µM | [2H]C([2H])([2H])c1nc(-c2cnc(NC(=O)C(O)c3cccc(F)c3)cc2C)c2c(N)nc(C)cn12 (stereo not drawn) [Example 178, N-[5-[8-amino-6-methyl-3-(trideuteriomethyl)imidazo[1,5-a]pyrazin-1-yl]-4-methyl-2-pyridyl]-2-(3-fluorophenyl)-2-hydroxy-acetamide] | 4 to 5 µM | –
0.001 to 0.025 µM | [2H]C([2H])([2H])c1nc(-c2ccc(NC(=O)C(O)c3cc(F)cc(C(F)(F)F)c3)c(F)c2F)c2c(N)ncc(C(F)(F)F)n12 (stereo not drawn) [Example 162, N-[4-[8-amino-3-(trideuteriomethyl)-5-(trifluoromethyl)imidazo[1,5-a]pyrazin-1-yl]-2,3-difluoro-phenyl]-2-[3-fluoro-5-(trifluoromethyl)phenyl]-2-hydroxy-acetamide] | 0.001 to 0.025 µM | –
0.001 to 0.025 µM | [2H]C([2H])([2H])c1nc(-c2ccc(NC(=O)C(O)c3cccc(Cl)c3)cc2C)c2c(N)ncc(C)n12 (stereo not drawn) [Example 37, N-[4-[8-amino-5-methyl-3-(trideuteriomethyl)imidazo[1,5-a]pyrazin-1-yl]-3-methyl-phenyl]-2-(3-chlorophenyl)-2-hydroxy-acetamide] | 0.051 to 0.1 µM | –
0.251 to 0.5 µM | [2H]C([2H])([2H])c1nc(-c2ccc(NC(=O)C(O)c3cc(F)cc(C(F)(F)F)c3)c(F)c2F)c2c(N)ncc(C(F)(F)F)n12 (stereo not drawn) [Example 163, N-[4-[8-amino-3-(trideuteriomethyl)-5-(trifluoromethyl)imidazo[1,5-a]pyrazin-1-yl]-2,3-difluoro-phenyl]-2-[3-fluoro-5-(trifluoromethyl)phenyl]-2-hydroxy-acetamide] | 0.251 to 0.5 µM | –
0.001 to 0.025 µM | [2H]C([2H])([2H])c1nc(-c2ccc(NC(=O)C(O)c3cccc(Cl)c3)cc2F)c2c(N)nc(C)cn12 (stereo not drawn) [Example 81, N-[4-[8-amino-6-methyl-3-(trideuteriomethyl)imidazo[1,5-a]pyrazin-1-yl]-3-fluoro-phenyl]-2-(3-chlorophenyl)-2-hydroxy-acetamide] | 0.101 to 0.25 µM | –
0.101 to 0.25 µM | [2H]C([2H])([2H])c1nc(-c2ccc(NC(=O)C(O)c3cccc(C(F)(F)F)c3)cc2C)c2c(N)nc(C)cn12 (stereo not drawn) [Example 15, N-[4-[8-amino-6-methyl-3-(trideuteriomethyl)imidazo[1,5-a]pyrazin-1-yl]-3-methyl-phenyl]-2-hydroxy-2-[3-(trifluoromethyl)phenyl]acetamide] | 0.251 to 0.5 µM | –
0.051 to 0.1 µM | [2H]C([2H])([2H])c1nc(-c2ccc(NC(=O)C(O)c3cccc(C(F)(F)F)c3)c(F)c2F)c2c(N)nc(C)cn12 (stereo not drawn) [Example 151, N-[4-[8-amino-6-methyl-3-(trideuteriomethyl)imidazo[1,5-a]pyrazin-1-yl]-2,3-difluoro-phenyl]-2-hydroxy-2-[3-(trifluoromethyl)phenyl]acetamide] | 0.251 to 0.5 µM | –
0.101 to 0.25 µM | [2H]C([2H])([2H])c1nc(-c2ccc(NC(=O)C(O)c3cccc(Cl)c3)cc2C)c2c(N)nc(C)cn12 (stereo not drawn) [Example 35, N-[4-[8-amino-6-methyl-3-(trideuteriomethyl)imidazo[1,5-a]pyrazin-1-yl]-3-methyl-phenyl]-2-(3-chlorophenyl)-2-hydroxy-acetamide] | 1 to 2 µM | –
0.051 to 0.1 µM | [2H]C([2H])([2H])c1nc(-c2ccc(NC(=O)C(O)c3cc(F)cc(F)c3)c(F)c2F)c2c(N)ncc(C(F)(F)F)n12 (stereo not drawn) [Example 159, N-[4-[8-amino-3-(trideuteriomethyl)-5-(trifluoromethyl)imidazo[1,5-a]pyrazin-1-yl]-2,3-difluoro-phenyl]-2-(3,5-difluorophenyl)-2-hydroxy-acetamide] | 0.251 to 0.5 µM | –
0.051 to 0.1 µM | [2H]C([2H])([2H])c1nc(-c2ccc(NC(=O)C(O)c3cc(F)cc(C(F)(F)F)c3)cc2F)c2c(N)nc(C)cn12 (stereo not drawn) [Example 117, N-[4-[8-amino-6-methyl-3-(trideuteriomethyl)imidazo[1,5-a]pyrazin-1-yl]-3-fluoro-phenyl]-2-[3-fluoro-5-(trifluoromethyl)phenyl]-2-hydroxy-acetamide] | 0.251 to 0.5 µM | –
0.001 to 0.025 µM | [2H]C([2H])([2H])c1nc(-c2ccc(NC(=O)C(O)c3cccc(F)c3)cc2C)c2c(N)nc(C)cn12 (stereo not drawn) [Example 5, N-(4-(8-amino-6-methyl-3-(trideuteriomethyl)imidazo[1,5-a]pyrazin-1-yl)-3-methylphenyl)-2-(3-fluorophenyl)-2-hydroxyacetamide] | – | 0.001 to 0.025 µM
0.026 to 0.05 µM | [2H]C([2H])([2H])c1nc(-c2cnc(NC(=O)C(O)c3cccc(F)c3)cc2C)c2c(N)ncc(C)n12 (stereo not drawn) [Example 180, N-[5-[8-amino-5-methyl-3-(trideuteriomethyl)imidazo[1,5-a]pyrazin-1-yl]-4-methyl-2-pyridyl]-2-(3-fluorophenyl)-2-hydroxy-acetamide] | 0.501 to 1 µM | –
1 to 2 µM | [2H]C([2H])([2H])c1nc(-c2ccc(NC(=O)C(O)c3cccc(F)c3)nc2C)c2c(N)nc(C)cn12 (stereo not drawn) [Example 171, N-[5-[8-amino-6-methyl-3-(trideuteriomethyl)imidazo[1,5-a]pyrazin-1-yl]-6-methyl-2-pyridyl]-2-(3-fluorophenyl)-2-hydroxy-acetamide] | > 5 µM | –

Reference: patent US12331054B2, “Perk inhibiting imidazolopyrazine compounds” (HiberCell, Inc., priority 2019, dated 2025)
